Experimental data reported in patent US4795715A, “Aminoalkoxy or carboxyalkoxy derivatives of propranolol for immunoassay applications” (Drug Science Foundation, priority 1986, dated 1989).

Tested on: propranolol antiserum (produced in Example 1)
Test: Specificity (cross-reactivity) of the antiserum of Example 1: inhibition of 3H propranolol-antibody complex formation (radioimmunoassay)
Format: binding, rabbit
Conditions: for relative efficiency of the compound with respect to propranolol as an inhibitor (percentage): propranolol = 100 %; for ID50 (amount of compound giving 50% inhibition of 3H-propranolol binding to antiserum): dl-[4-3H]-propranolol tracer
Procedure: Five New Zealand White rabbits were injected with an emulsion of the antigen as follows. For each animal, a solution was prepared consisting of 1 mg. of antigen dissolved in 0.8 ml. of 0.01M phosphate buffered saline at pH 7.4 and emulsified with 1.0 ml. of complete Freund's adjuvant. One hundred microliters of this emulsion was injected subcutaneously into each of the hind toe pads with the remainder divided between the hindquarters intramuscularly. One week later the animals were boosted with the same formulation, and additional boosts were administered at montly intervals thereafter. […] Bleedings were taken from the central ear artery seven to ten days after each boost, and weekly once the titre was sufficient. Blood was allowed to clot overnight at 4° C. and centrifuged to separate antiserum.
Radioactive dl-[4-^3 H]-propranolol with a specific activity of 21 C./mMol was obtained from the Radiochemical Center Amersham. This tritiated propranolol was diluted in the assay buffer just prior to use to obtain about 15000 cpm in 100 microliters of solution; 100 microliters of this preparation was added to each tube, including two background controls. The propranolol antiserum was diluted to 1:2000 in the buffer and 100 microliters of this solution was added to each tube with the exception of the background controls. The tubes were then vortexed, incubated at 37° C. for one hour, and cooled in an ice bath for 10 minutes prior to the addition of dextran-coated charcoal suspension.
Each tube was treated with one ml. of cold dextran-coated charcoal suspension and vortexed briefly, then incubated at 0° C. for 7-10 minutes prior to centrifugation at 5000 RPM in a refrigerated centriguge for 25 minutes. The supernatants were decanted into suitably labelled scintillation vials, dissolved in 10 ml. of counting cocktail and counted for 1-5 minutes. Counting cocktail was prepared by dissolving 40 g. of Omnifluor™ (purchased from New England Nuclear) and 2 liters of S-A-S Solubilizer™ (purchased from Research Products International Corp.) in 10 liters of toluene.

SMILES	relative efficiency of the compound with respect to propranolol as an inhibitor (percentage)	ID50 (amount of compound giving 50% inhibition of 3H-propranolol binding to antiserum)	cross reactivity with the antiserum (in words)
CC(C)NCC(O)COc1cccc2ccccc12 (racemic) [Propranolol]	100%	–	–
NCC(O)COc1cccc2ccccc12 (stereo not drawn) [Ndesisopropyl Propranolol Amino]	0.06%	780 ng	–
CC(C)NCC(O)COc1cccc2c(O)cccc12 (stereo not drawn) [5-Hydroxy-Propranolol]	90%	–	cross-react
CC(C)NCC(COc1cccc2ccccc12)OC1OC(C(=O)O)C(O)C(O)C1O (stereo not drawn) [Propranolol Glucuromide]	0.07%	700 ng	–
CC(C)NCC(O)COc1ccc(O)c2ccccc12 (stereo not drawn) [4-Hydroxy-Propranolol]	30%	–	significant cross reactivity
